# Data published in patent publication US11185524B2 (Novus International, Inc., priority 2019, dated 2021).
# Marks after values point to notes of the source that are not given here.
# Experiments:
# [1] = test system: rumen microorganisms; test: In vitro evaluation of rumen protection: degradation by rumen microorganisms in rumen fluid incubation; assay type: in vitro ADME, Holstein steers (rumen fluid donors); settings: male, Holstein, cattle, 12 h
# Method: Schematics of the HMTBa derivatives are presented below in Table. 1. Following the methodology of Patterson and Kung (J. Dairy Sci., 1988, vol. 71, pp. 3292-3301), fermentation substrate comprising casein, cellobiose, starch, pectin, and cellulose was added at a rate of 0.45 g to 250 mL fermentation flasks. HMTBa derivatives were randomly assigned to flasks and thoroughly mixed to ensure that all compounds were incorporated into the substrate. Methionine hydroxy analog (MHA), polymer encapsulated methionine (eMet) were also included as controls, as well as a blank. A total of 28 fermentation flasks were used, resulting in 4 replicates per treatment for each of the two experiments. Three cannulated Holstein steers were utilized as rumen fluid donors. Steers were housed on pasture, allowed to graze freely, and provided free choice supplement. Approximately 1000 mL of rumen fluid and a handful of rumen contents were obtained from each steer. Rumen fluid and contents were combined in pre-heated thermoses, transported to the lab, blended using a hand blender, and strained through 8 layers of cheese cloth. Combined rumen fluid was maintained under CO2 and thoroughly mixed. […] Due to variability associated with in vitro methodology, replicates were evaluated for similarity. […] Recovery of HMTBa or methionine was determined and expressed relative to initial amount of HMTBA or methionine (active) added. […]
# [2] = in vivo
SMILES,Free Active recovered [1],Ruminal undegradability (estimated ruminal stability) [1],HMTBa in plasma [2],L-methionine in plasma [2],"Methionine equivalents in plasma (sum of L-methionine, D-methionine, and HMTBa) [2]"
"CSCCC1OC(=O)C(CCSC)OC1=O (centres unmarked) [Cyclic Dimer, 3,6-bis(2-methylthio)ethyl-1,4-dioxane-2,5-dione]",439.6^c ppm,56.64^c,–,–,–
"CSCCC(O)C(=O)O (centres unmarked) [MHA, Methionine hydroxy analog]",–,–,0.324^a μg/mL,5.312^a μg/mL,5.666^a μg/mL
